Usually logD stands for lipophilicity at a set pH, counting ionised and neutral species. The term EC30 denotes the concentration at which the effect reaches the 30% level.

The values that follow come from ChEMBL document CHEMBL4177597, “A series of novel indazole derivatives of Sirt 1 activator as osteogenic regulators” (Bioorg Med Chem Lett, 2017).

In series [1] the target is T1, NAD-dependent protein deacetylase sirtuin-1 (Homo sapiens) (UniProt Q96EB6).
T1 sequence (whole entry): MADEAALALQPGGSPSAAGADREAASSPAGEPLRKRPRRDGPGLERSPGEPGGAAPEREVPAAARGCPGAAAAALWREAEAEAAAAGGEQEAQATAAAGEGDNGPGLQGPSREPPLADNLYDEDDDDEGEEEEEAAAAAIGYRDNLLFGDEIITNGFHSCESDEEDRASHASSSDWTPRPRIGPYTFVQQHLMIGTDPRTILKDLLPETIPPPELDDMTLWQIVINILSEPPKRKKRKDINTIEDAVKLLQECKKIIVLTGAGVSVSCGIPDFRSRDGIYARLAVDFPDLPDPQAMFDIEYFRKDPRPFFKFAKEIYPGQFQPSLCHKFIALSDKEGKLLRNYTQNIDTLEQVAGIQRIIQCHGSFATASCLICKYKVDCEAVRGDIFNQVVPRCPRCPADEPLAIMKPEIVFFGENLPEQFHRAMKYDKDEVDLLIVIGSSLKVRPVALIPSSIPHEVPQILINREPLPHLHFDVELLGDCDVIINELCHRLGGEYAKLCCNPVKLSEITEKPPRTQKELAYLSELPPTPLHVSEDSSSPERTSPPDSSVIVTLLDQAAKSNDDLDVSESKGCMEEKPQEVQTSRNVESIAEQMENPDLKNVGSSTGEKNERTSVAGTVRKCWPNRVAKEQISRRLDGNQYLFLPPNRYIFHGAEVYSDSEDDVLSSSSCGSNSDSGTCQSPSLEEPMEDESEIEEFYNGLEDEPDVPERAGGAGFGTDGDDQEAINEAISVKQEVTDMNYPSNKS
Nature of the series: Activation of SIRT1 (unknown origin) by mass spectrophotometric analysis.

Series [2] can be described thus: Octanol-water apparent partition coefficient, log D of the compound at pH 7.4 after 24 hrs by shake flask method. Type of series: physicochemical.
In series [3] the target is T1, NAD-dependent protein deacetylase sirtuin-1 (Homo sapiens). In words: Activation of SIRT1 in human U2OS cells assessed as increase in deacetylation of doxorubicin-induced acetylated p53 at 0.01 to 1 uM by Western blot analysis. In kind it is cell-based. For orientation: In western blotting, separated proteins are transferred to a membrane and probed.
Series [4] shares this target. Nature of the series: Activation of SIRT1 in human U2OS cells assessed as increase in ALP activity using p-NPP as substrate measured after 30 mins by colorimetric method. In kind it is cell-based.

Activity calls are given as the source filed them. No cut-off for these calls is given here.

In the case of `CCCS(=O)(=O)c1ccccc1CNc1ccc2c(c1)c(-c1ccc(C(=O)N[C@H]3CC[C@H](O)CC3)cc1)nn2C`, in series [1], the EC150 is 4.54 µM. The compound `Cn1nc(-c2ccc(C(=O)N[C@H]3CC[C@H](O)CC3)cc2)c2cc(NCc3cc(F)ccc3S(C)(=O)=O)ccc21` displayed an EC150 in series [1] of 0.95 µM. On the same count and under the same terms, the result for `Cc1cc(CNc2ccc3c(c2)c(-c2ccc(C(=O)N[C@H]4CC[C@H](O)CC4)cc2)nn3C)c(S(C)(=O)=O)cc1F` reads over 20 µM.

For `Cn1nc(-c2ccc(C(=O)NCCc3ccn[nH]3)cc2)c2cc(NCc3cc(F)ccc3S(C)(=O)=O)ccc21`, the EC150 in series [1] amounted to 1.36 µM. In series [1], `Cc1cc(S(C)(=O)=O)c(CNc2ccc3c(c2)c(-c2ccc(C(=O)N[C@H]4CC[C@H](O)CC4)cc2)nn3C)cc1F` registered an EC150 of 0.4 µM. For the same compound, the pH-dependent lipophilicity (logD) at 24 h in series [2] was determined as 1.41. In the case of `CCS(=O)(=O)c1ccccc1CNc1ccc2c(c1)c(-c1ccc(C(=O)N[C@H]3CC[C@H](O)CC3)cc1)nn2C`, the EC150 in series [1] worked out at 2.4 µM. On the same count and under the same terms, the result for `Cn1nc(-c2ccc(C(=O)NCC3CCCO3)cc2)c2cc(NCc3cc(F)ccc3S(C)(=O)=O)ccc21` (configuration not stated) reads 1.46 µM; that for `Cn1nc(-c2cnc3ccccc3c2)c2cc(NCc3cc(F)ccc3S(C)(=O)=O)ccc21`, 1.49 µM.

In series [1], `Cn1nc(-c2ccc3ccccc3c2)c2cc(NCc3cc(F)ccc3S(C)(=O)=O)ccc21` came in with an EC150 of 2.88 µM. In turn, `Cn1nc(-c2ccc(C(=O)N[C@H]3CC[C@H](O)CC3)cc2)c2cc(NCc3cc(F)c(F)cc3S(C)(=O)=O)ccc21` came in with an EC150 in series [1] of 0.4 µM. In addition, in series [2], the logD at 24 h amounted to 1.37. Also, the result in series [3] was Active. Also, in series [4], the EC30 was 0.65 nM. `CNC(=O)c1ccc(-c2nn(C)c3ccc(NCc4cc(F)ccc4S(C)(=O)=O)cc23)cc1` gave an EC150 in series [1] of 2.92 µM. Same read-out and setting: the result for `COCCS(=O)(=O)c1ccccc1CNc1ccc2c(c1)c(-c1ccc(C(=O)N[C@H]3CC[C@H](O)CC3)cc1)nn2C` reads 7.23 µM. Same read-out and setting: the result for `Cn1nc(-c2cc3ccccc3s2)c2cc(NCc3cc(F)ccc3S(C)(=O)=O)ccc21` reads 1.52 µM.
